The first assay concerns the target T1, CRBN_C287 (Homo sapiens, UniProt Q96SW2).
T1 construct: endogenous in cells; host or cells: cell lysate
Put plainly: CRBN C287 inhibition, probe labeling in lysate (Example 42). The format is binding. The settings on record: 500 uM, lysate, 1 h; read-out: % inh @ 500 uM (CRBN_C287, lysate 1 h). Here is the method: The following 96-well sample prep protocol was used for sample preparation.
Cells were resuspended in cold PBS on ice and sonicated with a probe sonicator to achieve lysis. 200 μL of lysate containing 5 mg/ml proteome was treated with 2 μL of 100× compound stock in a 2-mL deep-well plate. The treated lysate was subsequently incubate at 25° C. for 1 hr with shaking at 600 rpm. The treated lysate was further incubated with 2 μL of 10 mM desthiobiotin iodoacetamide probe at 25° C. for 1 hr with shaking at 600 rpm. […] 1.7 mL ice-cold acetone was added to each well and incubated at −20° C. for 2 hr, followed by max speed (4200 rpm) spin for 45 min. Acetone was then decanted and the plates were blotted to remove acetone. The plates were then dried in open air for 20 minutes. After drying, the plates were then covered with foil seal and stored at −80° C. overnight.
The next day, samples were re-suspended in 90 μL of solution of 9M urea, 50 mM ammonium bicarbonate and 10 mM DTT by incubating at 65° C. for 20 min with shaking at 1500 rpm. […] The samples were then incubated at 37° C. for 30 min with shaking at 600 rpm.
ZEBA desalting plates were equilibrated 4 times using 250 μL of 2M urea, 50 mM ammonium bicarbonate solution followed by centrifugation at 1500 rpm for 2 minutes. After equilibration was complete, samples were applied to ZEBA desalting plate and spin at 1500 rpm for 2 min on top of 1 mL 96-well deep-well collection plate to buffer exchange samples. 4 μL of solution containing 25 mM CaCl2 and 0.25 mg/mL trypsin was added to the plate and the plate was then incubated at 37° C. for 2 hrs with shaking at 600 rpm. 300 μL of solution containing 5% high-capacity streptavidin agarose slurry in 25 mM Tris-HCl pH 7.5, 150 mM NaCl, and 0.1% NP-40 then added. The plate was incubated at 25° C. for 2 hrs with shaking at 600 rpm. Samples were transferred to 25 μm filter plate and spin at 1000 rpm for 2 min. Samples were then washed 3 times with 0.75 mL of wash buffer (25 mM Tris-HCl pH 7.5, 150 mM NaCl, and 0.1% NP-40) followed by washing 3 times with 0.75 mL PBS, and then 4 times with 0.75 mL water. After the washing step, samples were eluted into polypropylene 96-well plate by addition of 250 μL of 50% MeCN/water, 0.1% formic acid and allowed to gravity drip for 10 min, followed by centrifugation at 1000 rpm for 2 min. Speedvac was used to dry the plates at about 45° C. for […]. Then the plates were covered with foil seal and stored at −20° C.
Then add 30 μL of 0.1% formic acid solution was added and the plate was covered and incubated at 42° C. for 10 minutes with shaking at 600 rpm. Seal plate was then sealed with a 96-well silicon mat for analysis.
T1 sequence (Q96SW2 whole entry): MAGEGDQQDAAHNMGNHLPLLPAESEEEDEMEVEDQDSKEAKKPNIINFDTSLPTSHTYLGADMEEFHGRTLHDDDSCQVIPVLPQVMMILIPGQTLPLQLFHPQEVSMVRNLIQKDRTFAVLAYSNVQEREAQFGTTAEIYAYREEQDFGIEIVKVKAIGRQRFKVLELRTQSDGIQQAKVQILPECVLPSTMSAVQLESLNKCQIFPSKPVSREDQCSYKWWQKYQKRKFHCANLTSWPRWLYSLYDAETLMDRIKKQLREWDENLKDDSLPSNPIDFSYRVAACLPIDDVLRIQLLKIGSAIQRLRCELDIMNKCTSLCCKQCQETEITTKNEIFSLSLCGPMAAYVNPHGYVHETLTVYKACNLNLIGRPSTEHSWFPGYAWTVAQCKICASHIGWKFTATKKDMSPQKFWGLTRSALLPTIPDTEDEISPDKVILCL
As to `C=CC(=O)N1CCC(Oc2cccc(-c3ccc(F)cc3OC)c2)CC1` [Example 1, 1-(4-((4′-fluoro-2′-methoxy-[1,1′-biphenyl]-3-yl)oxy)piperidin-1-yl)prop-2-en-1-one], the inhibition at 500 µM was 74.8%. Regarding `C=CC(=O)N1CCC(Oc2cccc(-c3ccccc3OCC)c2)CC1` [Example 2], the inhibition at 500 µM worked out at 59.8%. Take `C=CC(=O)N1CCC(Oc2cccc(-c3ccccc3O)c2)CC1` [Example 3]: the inhibition at 500 µM was found to be 48.9%. On to `C=CC(=O)N1CCC(Oc2cccc(-c3ccccc3Cl)c2)CC1` [Example 4], for which the inhibition at 500 µM is 64.8%.

With `C=CC(=O)N1CCC(Oc2cc(Cl)cc(-c3ccccc3OC)c2)CC1` [Example 5], the inhibition at 500 µM was 88.5%. Regarding `C=CC(=O)N1CCC(Oc2cc(Cl)cc(-c3ccccc3)c2)CC1` [Example 6], the inhibition at 500 µM is 72.2%. As to `C=CC(=O)N1CCC(Oc2cccc(-c3ccccc3OC)c2)CC1` [Example 7], the inhibition at 500 µM was found to be 91.2%. Turning to `C#CC(=O)N1CCC(Oc2cccc(-c3ccccc3)c2)CC1` [Example 8], the inhibition at 500 µM turned out to be 76.8%.

As for `C#CC(=O)N1CCC(Oc2cccc(-c3ccccc3OC)c2)CC1` [Example 9], the inhibition at 500 µM came out at 88.8%.

For `CN(C)C/C=C/C(=O)N1CCC(Oc2cccc(-c3ccccc3)c2)CC1` [Example 10], the inhibition at 500 µM worked out at 52.4%. On the same count and under the same terms, for `COc1ccccc1-c1cccc(OC2CCN(C(=O)/C=C/CN(C)C)CC2)c1` [Example 11] the value was 92.9%.

Take `COc1ccccc1-c1cc(C#N)cc(OC2CCN(C(=O)/C=C/CN3CCOCC3)CC2)c1` [Example 12]: the inhibition at 500 µM is 87.2%. For `C=CC(=O)N1CCC(Oc2cc(C#N)cc(-c3ccccc3)c2)CC1` [Example 13], the inhibition at 500 µM was 81.3%. Same read-out and setting: then `C=CC(=O)N1CCC(Oc2cc(C#N)cc(-c3ccccc3OC)c2)CC1` [Example 14], with 94.5%; and `C=CC(=O)N1CCC(Oc2cccc(-c3ccccc3OC)c2Cl)CC1` [Example 18], with 60.4%; and `C=CC(=O)N1CCC(Oc2cccc(-c3ccccc3)c2C#N)CC1` [Example 19], with 68.2%. `C=CC(=O)N1CCC(Oc2cccc(-c3ccccc3OC)c2C#N)CC1` [Example 20]: the inhibition at 500 µM came out at 57.6%. As for `C=CC(=O)N1CCC(Oc2cc(-c3ccccc3OC)ccc2C(N)=O)CC1` [Example 21], the inhibition at 500 µM was found to be 64.6%. In the case of `C=CC(=O)N1CCC(Oc2cc(C(N)=O)cc(-c3ccccc3OC)c2)CC1` [Example 22], the inhibition at 500 µM is 95.2%. Take `C=CC(=O)N1CCC(Oc2cc(OC)cc(-c3ccccc3)c2)CC1` [Example 23]: the inhibition at 500 µM worked out at 91.1%. On to `C=CC(=O)N1CCC(Oc2cc(OC)cc(-c3ccccc3OC)c2)CC1` [Example 24], for which the inhibition at 500 µM came out at 89.3%. Consider `C=CC(=O)N1CCC(Oc2cc(C(=O)NC)cc(-c3ccccc3OC)c2)CC1` [Example 26], for which the inhibition at 500 µM worked out at 77.4%. As to `C=CC(=O)N1C2CCC1CC(Oc1cc(C#N)cc(-c3ccccc3OC)c1)C2` [Example 38, 5-(((1R,3s,5S)-8-acryloyl-8-azabicyclo[3.2.1]octan-3-yl)oxy)-2′-methoxy-[1,1′-biphenyl]-3-carbonitrile], the inhibition at 500 µM came out at 78%.

The assay is the same for the next values; noted with them: CRBN_C287, lysate 1 h.
`C=CC(=O)N1CCn2c(nnc2C(F)(F)F)C1`: the “CRBN_C287 inhibition, result in words” value is on record as “No activity”. `C=CC(=O)N1CCC(Oc2ccc(-c3ccc(S(C)(=O)=O)cc3)cc2)CC1`: the “CRBN_C287 inhibition, result in words” value was “No activity”.

The assay is the same for the next values; noted with them: TE50, CRBN_C287, lysate 1 h.
As to `C=CC(=O)N1CCC(Oc2cc(C#N)cc(-c3ccccc3OC)c2)C(C)C1` (single isomer, unassigned) [Example 33, 5-((1-acryloyl-3-methylpiperidin-4-yl)oxy)-2′-methoxy-[1,1′-biphenyl]-3-carbonitrile], the IC50 was determined as 4.66 µM. In the case of `C=CC(=O)N1CCC(Oc2cc(C#N)cc(-c3ccccc3OC)c2)C(C)C1` (single isomer, unassigned) [Example 34, 5-((1-acryloyl-3-methylpiperidin-4-yl)oxy)-2′-methoxy-[1,1′-biphenyl]-3-carbonitrile], it took 8.97 µM to reach half-maximal inhibition (IC50). Molecule `C=CC(=O)N1CCC(Oc2cc(C#N)cc(-c3ccccc3OC)c2)C(C)C1` (single isomer, unassigned) [Example 35, 5-((1-acryloyl-3-methylpiperidin-4-yl)oxy)-2′-methoxy-[1,1′-biphenyl]-3-carbonitrile] came in with an IC50 of 9.8 µM.

Turning to `C=CC(=O)N1CCC(Oc2cc(C#N)cc(-c3ccccc3CC)c2)CC1` [Example 15], the IC50 worked out at 22.2 µM. Turning to `COc1ccccc1-c1cc(C#N)cc(OC2CCN(C(=O)/C(C#N)=C/C(C)C)CC2)c1` [Example 16], the IC50 worked out at 0.12 µM. This IC50 lies about 180-fold lower than the previous one. Consider `C=CC(=O)N1CCC(Oc2cc(-c3ccccc3OC)cnn2)CC1` [Example 27, 1-(4-((5-(2-methoxyphenyl)pyridazin-3-yl)oxy)piperidin-1-yl)prop-2-en-1-one], for which the midpoint of inhibition, the IC50, lay at 7.5 µM.

For `C=CC(=O)N1CCC(Oc2cc(-c3ccccc3OC)cc(C#N)n2)CC1` [Example 28, 6-((1-acryloylpiperidin-4-yl)oxy)-4-(2-methoxyphenyl)picolinonitrile], the half-maximal inhibitory concentration (IC50) turned out to be 80 µM. This IC50 is about 11-fold higher than that of the molecule before.

Take `C=CC(=O)N1CC[C@H](Oc2cc(C#N)cc(-c3ccccc3OC)c2)[C@@H](F)C1` [Example 29, 5-(((3S,4S)-1-acryloyl-3-fluoropiperidin-4-yl)oxy)-2′-methoxy-[1,1′-biphenyl]-3-carbonitrile]: half-maximal inhibition (IC50) was put at 1.25 µM. This IC50 lies about 64-fold lower than the previous one. Still for that read-out and setting: for `C=CC(=O)N1CC[C@@H](Oc2cc(C#N)cc(-c3ccccc3OC)c2)[C@H](F)C1` [Example 30, 5-(((3R,4R)-1-acryloyl-3-fluoropiperidin-4-yl)oxy)-2′-methoxy-[1,1′-biphenyl]-3-carbonitrile] the value was 0.4 µM; for `C=CC(=O)N1CC[C@H](Oc2cc(C#N)cc(-c3ccccc3OC)c2)[C@H](F)C1` [Example 31, 5-(((3R,4S)-1-acryloyl-3-fluoropiperidin-4-yl)oxy)-2′-methoxy-[1,1′-biphenyl]-3-carbonitrile], 0.29 µM; for `C=CC(=O)N1CC[C@@H](Oc2cc(C#N)cc(-c3ccccc3OC)c2)[C@@H](F)C1` [Example 32, 5-(((3S,4R)-1-acryloyl-3-fluoropiperidin-4-yl)oxy)-2′-methoxy-[1,1′-biphenyl]-3-carbonitrile], 1.49 µM. In turn, `C=CC(=O)N1CC(Oc2cc(C#N)cc(-c3ccccc3OC)c2)C1` [Example 36, 5-((1-acryloylazetidin-3-yl)oxy)-2′-methoxy-[1,1′-biphenyl]-3-carbonitrile] registered a half-maximal inhibitory concentration (IC50) of 0.12 µM.

`C=CC(=O)N1CCC(Sc2cccc(-c3ccccc3OC)c2)CC1` [Example 37, 1-(4-((2′-methoxy-[1,1′-biphenyl]-3-yl)thio)piperidin-1-yl)prop-2-en-1-one] showed a half-maximal inhibitory concentration (IC50) of 31 µM. Against the preceding molecule, the IC50 is about 260-fold higher. `C=CC(=O)N1[C@@H]2CC[C@H]1C[C@H](Oc1cc(C(N)=O)cc(-c3ccccc3OC)c1)C2` [Example 39, 5-(((1R,3s,5S)-8-acryloyl-8-azabicyclo[3.2.1]octan-3-yl)oxy)-2′-methoxy-[1,1′-biphenyl]-3-carboxamide] yielded an IC50 of 53 µM.

Take `C#CCOCCOCCOCCOc1ccc(OC)c(-c2cc(C#N)cc(OC3CCN(C(=O)C=C)CC3)c2)c1` [Example 40, 3-[2-methoxy-5-[2-[2-(2-prop-2-ynoxyethoxy)ethoxy]ethoxy]phenyl]-5-[(1-prop-2-enoyl-4-piperidyl)oxy]benzonitrile]: the midpoint of inhibition, the IC50, lay at 2.57 µM. In turn, `C=CC(=O)N1CCC(Oc2cc(OC(F)(F)F)cc(-c3ccccc3OC)c2)CC1` [Example 41, 1-(4-((2′-methoxy-5-(trifluoromethoxy)-[1,1′-biphenyl]-3-yl)oxy)piperidin-1-yl)prop-2-en-1-one] gave a half-inhibitory concentration (IC50) of 31 µM.

Values taken from patent US20220298213A1, “IN VIVO ENGINEERED CEREBLON PROTEIN” (Vividion Therapeutics, Inc., priority 2018, published 2022).
